Data from patent US12144795B2, “Cannabidiol compositions having modified cannabinoid profiles” (priority 2018, dated 2024).
Read-outs that look alike come from different tables or passages of the source.

Key:
[1] = Cooling crystallization, XRPD before and after AAC; type: physicochemical
Protocol: Cooling crystallizations were performed by preparing clear solutions of CBD with a maximum concentration of approximately 60 mg/mL. The solutions were slowly cooled to 0° C. and kept at this temperature for 48 hours. Precipitated solids were collected, dried under ambient conditions, and analyzed by XRPD. If no solids had precipitated, the mother liquors were allowed to slowly evaporate and the remaining solids were analyzed by XRPD. All solids were exposed to accelerated aging conditions for 48 hours and analyzed again by XRPD. Cannabidiol precipitated upon cooling from pentane and heptane. […] When no XRPD record was generated, the field is defined as “Not Applicable” (N/A).

[2] = type: physicochemical
[3] = 1 month Accelerated 40° C./75% RH
[4] = 1.5 months Accelerated 40° C./75% RH
[5] = 2 months Accelerated 40° C./75% RH
[6] = 3 months Accelerated 40° C./75% RH
[7] = 5 months Accelerated 40° C./75% RH
[8] = 6 months Accelerated 40° C./75% RH

Question: For `C=C(C)[C@@H]1CCC(C)=C[C@H]1c1c(O)cc(CCCCC)cc1O` [CBD, (1′R,2′R)-5′-methyl-4-pentyl-2′-(prop-1-en-2-yl)-1′,2′,3′,4′-tetrahydro-[1,1′-biphenyl]-2,6-diol], which “Effect of accelerated aging conditions” value ([1]; AAC for 48 hours) is on record?
Answer: no effect on the crystallinity

Question: What about the “XRPD of solids precipitated upon cooling” value ([1]; from pentane and heptane, cooled to 0° C., 48 hours) of the same compound?
Answer: identical to starting material Form A

Question: And the “Dissolved at initial T?” value ([1]; solvent 1,2-Dimethoxyethane)?
Answer: Yes

Question: And the “Solids after T profile” value ([1]; solvent 1,2-Dimethoxyethane)?
Answer: No

Question: And the “Dissolved at initial T?” value ([1]; solvent 1,4-Dioxane)?
Answer: Yes

Question: And the “Solids after T profile” value ([1]; solvent 1,4-Dioxane)?
Answer: No

Question: What about the “Dissolved at initial T?” value ([1]; solvent 2,2,4-Trimethylpentane) of the same compound?
Answer: No

Question: And the “Solids after T profile” value ([1]; solvent 2,2,4-Trimethylpentane)?
Answer: No

Question: And the “Dissolved at initial T?” value ([1]; solvent Acetone)?
Answer: Yes

Question: What about the “Form by HT-XRPD Dry solids” value ([1]; solvent Acetone) of the same compound?
Answer: Oily

Question: What about the “Solids after T profile” value ([1]; solvent Acetone) of the same compound?
Answer: No

Question: What about the “Dissolved at initial T?” value ([1]; solvent Acetonitrile) of the same compound?
Answer: Yes

Question: What about the “Form by HT-XRPD Dry solids” value ([1]; solvent Acetonitrile) of the same compound?
Answer: Oily

Question: What about the “Solids after T profile” value ([1]; solvent Acetonitrile) of the same compound?
Answer: No

Question: And the “Dissolved at initial T?” value ([1]; solvent Chloroform)?
Answer: Yes

Question: What about the “Form by HT-XRPD Dry solids” value ([1]; solvent Chloroform) of the same compound?
Answer: Oily

Question: What about the “Solids after T profile” value ([1]; solvent Chloroform) of the same compound?
Answer: No

Question: And the “Dissolved at initial T?” value ([1]; solvent Cyclohexane)?
Answer: Yes

Question: And the “Solids after T profile” value ([1]; solvent Cyclohexane)?
Answer: No

Question: And the “Dissolved at initial T?” value ([1]; solvent Diethylene glycol)?
Answer: Yes

Question: And the “Form by HT-XRPD Dry solids” value ([1]; solvent Diethylene glycol)?
Answer: Oily

Question: And the “Solids after T profile” value ([1]; solvent Diethylene glycol)?
Answer: No

Question: What about the “Dissolved at initial T?” value ([1]; solvent Ethanol) of the same compound?
Answer: Yes

Question: What about the “Solids after T profile” value ([1]; solvent Ethanol) of the same compound?
Answer: No

Question: And the “Dissolved at initial T?” value ([1]; solvent Ethyl acetate)?
Answer: Yes

Question: What about the “Form by HT-XRPD Dry solids” value ([1]; solvent Ethyl acetate) of the same compound?
Answer: Oily

Question: And the “Solids after T profile” value ([1]; solvent Ethyl acetate)?
Answer: No

Question: And the “Dissolved at initial T?” value ([1]; solvent Heptane)?
Answer: Yes

Question: What about the “Form by HT-XRPD Dry solids” value ([1]; solvent Heptane) of the same compound?
Answer: Oily

Question: What about the “Solids after T profile” value ([1]; solvent Heptane) of the same compound?
Answer: No

Question: What about the “Dissolved at initial T?” value ([1]; solvent Hexane) of the same compound?
Answer: No

Question: What about the “Solids after T profile” value ([1]; solvent Hexane) of the same compound?
Answer: Yes

Question: What about the “Dissolved at initial T?” value ([1]; solvent Pentane) of the same compound?
Answer: No

Question: What about the “Solids after T profile” value ([1]; solvent Pentane) of the same compound?
Answer: Yes

Question: What about the “Dissolved at initial T?” value ([1]; solvent Tetrahydrofuran) of the same compound?
Answer: Yes

Question: And the “Form by HT-XRPD Dry solids” value ([1]; solvent Tetrahydrofuran)?
Answer: Oily

Question: And the “Solids after T profile” value ([1]; solvent Tetrahydrofuran)?
Answer: No

Question: And the “Dissolved at initial T?” value ([1]; solvent Water)?
Answer: No

Question: And the “Form by HT-XRPD Dry solids” value ([1]; solvent Water)?
Answer: Low yield

Question: And the “Solids after T profile” value ([1]; solvent Water)?
Answer: No

Question: And the “Chromatographic Purity: 4-Monobromo-cannabidiol” value ([2]; 0 month)?
Answer: <0.03%

Question: And the “Chromatographic Purity: Individual unspecified impurity” value ([2]; 0 month)?
Answer: <0.03%

Question: What about the “Chromatographic Purity: Olivetol” value ([2]; 0 month) of the same compound?
Answer: <0.03%

Question: What about the “Chromatographic Purity: Sum of impurities” value (shortened to “Chromatographic Purity: Sum”) ([2]; 0 month) of the same compound?
Answer: <0.05%

Question: What about the “Chromatographic Purity: 4-Monobromo-cannabidiol” value ([2]; 1 month 5° C.) of the same compound?
Answer: <0.03%

Question: And the “Chromatographic Purity: Individual unspecified impurity” value ([2]; 1 month 5° C.)?
Answer: <0.03%

Question: And the “Chromatographic Purity: Olivetol” value ([2]; 1 month 5° C.)?
Answer: <0.03%

Question: And the “Chromatographic Purity: Sum” value ([2]; 1 month 5° C.)?
Answer: <0.05%

Question: And the “Chromatographic Purity: 4-Monobromo-cannabidiol” value ([2]; 1 month 25° C./60% RH)?
Answer: <0.03%

Question: And the “Chromatographic Purity: Individual unspecified impurity” value ([2]; 1 month 25° C./60% RH)?
Answer: <0.03%

Question: What about the “Chromatographic Purity: Olivetol” value ([2]; 1 month 25° C./60% RH) of the same compound?
Answer: <0.03%

Question: What about the “Chromatographic Purity: Sum” value ([2]; 1 month 25° C./60% RH) of the same compound?
Answer: <0.05%

Question: And the “Chromatographic Purity: 4-Monobromo-cannabidiol” value [2, 3]?
Answer: <0.03%

Question: What about the “Chromatographic Purity: Individual unspecified impurity” value [2, 3] of the same compound?
Answer: <0.03%

Question: And the “Chromatographic Purity: Olivetol” value [2, 3]?
Answer: <0.03%

Question: And the “Chromatographic Purity: Sum” value [2, 3]?
Answer: <0.05%

Question: What about the “Chromatographic Purity: 4-Monobromo-cannabidiol” value ([2]; 1.5 months 25° C./60% RH) of the same compound?
Answer: <0.03%

Question: What about the “Chromatographic Purity: Individual unspecified impurity” value ([2]; 1.5 months 25° C./60% RH) of the same compound?
Answer: <0.03%

Question: And the “Chromatographic Purity: Olivetol” value ([2]; 1.5 months 25° C./60% RH)?
Answer: <0.03%

Question: And the “Chromatographic Purity: Sum” value ([2]; 1.5 months 25° C./60% RH)?
Answer: <0.05%

Question: And the “Chromatographic Purity: 4-Monobromo-cannabidiol” value [2, 4]?
Answer: <0.03%

Question: What about the “Chromatographic Purity: Individual unspecified impurity” value [2, 4] of the same compound?
Answer: <0.03%

Question: What about the “Chromatographic Purity: Olivetol” value [2, 4] of the same compound?
Answer: <0.03%

Question: What about the “Chromatographic Purity: Sum” value [2, 4] of the same compound?
Answer: <0.05%

Question: What about the “Chromatographic Purity: 4-Monobromo-cannabidiol” value [2, 5] of the same compound?
Answer: <0.03%

Question: What about the “Chromatographic Purity: Individual unspecified impurity” value [2, 5] of the same compound?
Answer: <0.03%

Question: And the “Chromatographic Purity: Olivetol” value [2, 5]?
Answer: <0.03%

Question: And the “Chromatographic Purity: Sum” value [2, 5]?
Answer: <0.05%

Question: What about the “Chromatographic Purity: 4-Monobromo-cannabidiol” value [2, 6] of the same compound?
Answer: <0.03%

Question: What about the “Chromatographic Purity: Individual unspecified impurity” value [2, 6] of the same compound?
Answer: <0.03%

Question: And the “Chromatographic Purity: Olivetol” value [2, 6]?
Answer: <0.03%

Question: And the “Chromatographic Purity: Sum” value [2, 6]?
Answer: <0.05%

Question: And the “Chromatographic Purity: 4-Monobromo-cannabidiol” value [2, 7]?
Answer: <0.03%

Question: What about the “Chromatographic Purity: Individual unspecified impurity” value [2, 7] of the same compound?
Answer: <0.03%

Question: And the “Chromatographic Purity: Olivetol” value [2, 7]?
Answer: <0.03%

Question: What about the “Chromatographic Purity: Sum” value [2, 7] of the same compound?
Answer: <0.05%

Question: What about the “Chromatographic Purity: 4-Monobromo-cannabidiol” value ([2]; 6 months 25° C./60% RH) of the same compound?
Answer: <0.03%

Question: What about the “Chromatographic Purity: Individual unspecified impurity” value ([2]; 6 months 25° C./60% RH) of the same compound?
Answer: <0.03%

Question: And the “Chromatographic Purity: Olivetol” value ([2]; 6 months 25° C./60% RH)?
Answer: <0.03%

Question: And the “Chromatographic Purity: Sum” value ([2]; 6 months 25° C./60% RH)?
Answer: <0.05%

Question: And the “Chromatographic Purity: 4-Monobromo-cannabidiol” value [2, 8]?
Answer: <0.03%

Question: What about the “Chromatographic Purity: Individual unspecified impurity” value [2, 8] of the same compound?
Answer: <0.03%

Question: What about the “Chromatographic Purity: Olivetol” value [2, 8] of the same compound?
Answer: <0.03%

Question: And the “Chromatographic Purity: Sum” value [2, 8]?
Answer: <0.05%
